Source: patent publication US12370192B2, “Azole-fused pyridazin-3(2H)-one derivatives” (TAKEDA PHARMACEUTICAL COMPANY LIMITED, priority 2019, dated 2025)

Columns and labels:
human GPR139 receptor [1] = biological target: T1, human GPR139 receptor (Homo sapiens, UniProt Q6DWJ6); test: GPR139 Competition Binding (membrane-based, tritium-labeled ligand); conditions: T-REx-CHO membranes with human GPR139; 6.5 nM tritium-labeled ligand; 11-point curve, 30 μM maximum concentration; read-out: GPR139 Binding Affinity (pKi) (converted)
T1 construct: expressed in transfected cells; host or cells: T-REx-CHO (Thermo Fisher Scientific), doxycycline-induced
T1 sequence (Q6DWJ6 1-353): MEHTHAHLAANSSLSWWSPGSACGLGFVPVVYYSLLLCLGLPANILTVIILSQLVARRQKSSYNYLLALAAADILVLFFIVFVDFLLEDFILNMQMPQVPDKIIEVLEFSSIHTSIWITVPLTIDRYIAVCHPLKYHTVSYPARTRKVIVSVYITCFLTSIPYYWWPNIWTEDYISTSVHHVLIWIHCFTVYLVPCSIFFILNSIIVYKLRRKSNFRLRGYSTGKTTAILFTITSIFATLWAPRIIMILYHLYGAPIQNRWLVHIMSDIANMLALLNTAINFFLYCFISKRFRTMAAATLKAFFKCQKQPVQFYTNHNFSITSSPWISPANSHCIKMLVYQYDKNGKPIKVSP
Procedure, shortened: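 Membranes came from doxycycline-induced T-REx-CHO cells expressing human GPR139. They were incubated 20 min at room temperature with 6.5 nM tritiated ligand and compound (11 points, top 30 μM) in HEPES pH 7.3 buffer with MgCl2/CaCl2. Filter-bound counts gave Ki by four-parameter fit, reported as pKi.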

human GPR139 receptor [2] = biological target: T1, human GPR139 receptor; test: Measurement of GPR139 Activation Via Calcium Signaling (FLIPR, T-REx-CHO cells); type: cell-based; conditions: T-REx-CHO cells stably expressing human GPR139, 11-point dose response, 10 μM maximum concentration, read-out: GPR139 Potency (pEC50) (converted)
Procedure, shortened: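 Calcium flux read by FLIPR for 1 min after adding compounds (11 concentrations, maximum 10 μM) to doxycycline-induced (2 μg/mL, 17 h) T-REx-CHO cells expressing human GPR139. Cells dye-loaded 40 min at 37 °C in HBSS, 1 mM HEPES pH 7.4 with probenecid; activation reported as pEC50 from four-parameter logistic fit.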

SMILES | Ki (human GPR139 receptor [1]) [nM] | EC50 (human GPR139 receptor [2]) [nM]
CC(C)c1nn(C)c2cnn(CC(=O)N[C@@H](C)c3ccc(OC(F)(F)F)cc3)c(=O)c12 [Example 50, (S)-2-(3-isopropyl-1-methyl-4-oxo-1,4-dihydro-5H-pyrazolo[3,4-d]pyridazin-5-yl)-N-(1-(4-(trifluoromethoxy)phenyl)ethyl)acetamide] | 126 | 166
Cc1ccc([C@H](C)NC(=O)Cn2nc(C)c3c(c(C)nn3C)c2=O)c(F)c1 [Example 111, (S)—N-(1-(2-fluoro-4-methylphenyl)ethyl)-2-(1,3,7-trimethyl-4-oxo-1,4-dihydro-5H-pyrazolo[3,4-d]pyridazin-5-yl)acetamide] | 42.7 | 148
COc1ccc([C@H](C)NC(=O)Cn2ncc3c(c(C)nn3C3CC3)c2=O)cc1C [Example 31, (S)-2-(1-cyclopropyl-3-methyl-4-oxo-1,4-dihydro-5H-pyrazolo[3,4-d]pyridazin-5-yl)-N-(1-(4-methoxy-3-methylphenyl)ethyl)acetamide] | 11700 | 57.5
Cc1nn(C)c2cnn(CC(=O)N[C@@H](C)c3ccc(OC(F)(F)F)cc3)c(=O)c12 [Example 47, (S)-2-(1,3-dimethyl-4-oxo-1,4-dihydro-5H-pyrazolo[3,4-d]pyridazin-5-yl)-N-(1-(4-(trifluoromethoxy)phenyl)ethyl)acetamide] | 162 | 37.2
COc1ccc([C@H](C)NC(=O)Cn2ncc3c(c(C)nn3C)c2=O)cc1 [Example 48, (S)-2-(1,3-dimethyl-4-oxo-1,4-dihydro-5H-pyrazolo[3,4-d]pyridazin-5-yl)-N-(1-(4-methoxyphenyl)ethyl)acetamide] | 1910 | 33.1
Cc1nn(C2CC2)c2cnn(CC(=O)N[C@@H](C)c3ccc(F)cc3Cl)c(=O)c12 [Example 131, (S)—N-(1-(2-chloro-4-fluorophenyl)ethyl)-2-(1-cyclopropyl-3-methyl-4-oxo-1,4-dihydro-5H-pyrazolo[3,4-d]pyridazin-5-yl)acetamide] | 42.7 | 41.7
Cc1ccc([C@H](C)NC(=O)Cn2ncc3c(C4CC4)cn(C)c3c2=O)cc1 [Example 158, (S)-2-(3-cyclopropyl-1-methyl-7-oxo-1,7-dihydro-6H-pyrrolo[2,3-d]pyridazin-6-yl)-N-(1-(p-tolyl)ethyl)acetamide] | 47.9 | 57.5
C[C@H](NC(=O)Cn1nc(C2CC2)c2cnn(-c3ccccc3)c2c1=O)c1ccc(OC(F)(F)F)cc1 [Example 45, (S)-2-(4-cyclopropyl-7-oxo-1-phenyl-1,7-dihydro-6H-pyrazolo[3,4-d]pyridazin-6-yl)-N-(1-(4-(trifluoromethoxy)phenyl)ethyl)acetamide] | 224 | ≥ 10000
Cc1ccc([C@H](C)NC(=O)Cn2ncc3c(c(C(F)(F)F)nn3C)c2=O)c(F)c1 [Example 170, (S)—N-(1-(2-fluoro-4-methylphenyl)ethyl)-2-(1-methyl-4-oxo-3-(trifluoromethyl)-1,4-dihydro-5H-pyrazolo[3,4-d]pyridazin-5-yl)acetamide] | 20.9 | 72.4
Cc1ccc([C@H](C)NC(=O)Cn2ncc3c(C4CC4)nn(C)c3c2=O)cc1 [Example 149, (S)-2-(3-cyclopropyl-1-methyl-7-oxo-1,7-dihydro-6H-pyrazolo[3,4-d]pyridazin-6-yl)-N-(1-(p-tolyl)ethyl)acetamide] | 219 | 26.3
Cc1ccc([C@H](C)NC(=O)Cn2nc(C)c3c(c(C4CC4)nn3C)c2=O)c(F)c1 [Example 117, (S)-2-(3-cyclopropyl-1,7-dimethyl-4-oxo-1,4-dihydro-5H-pyrazolo[3,4-d]pyridazin-5-yl)-N-(1-(2-fluoro-4-methylphenyl)ethyl)acetamide] | 2.09 | 50.1
Cc1ccc([C@H](C)NC(=O)Cn2ncc3c(c(C)cn3C3CC3)c2=O)cc1F [Example 62, (S)-2-(1-cyclopropyl-3-methyl-4-oxo-1,4-dihydro-5H-pyrrolo[2,3-d]pyridazin-5-yl)-N-(1-(3-fluoro-4-methylphenyl)ethyl)acetamide] | 2.14 | 25.1
CC(C)c1nn(C)c2cnn(CC(=O)N[C@@H](C)c3ccc(C(F)(F)F)cc3)c(=O)c12 [Example 52, (S)-2-(3-isopropyl-1-methyl-4-oxo-1,4-dihydro-5H-pyrazolo-[3,4-d]pyridazin-5-yl)-N-(1-(4-(trifluoromethyl)phenyl)ethyl)acetamide] | 204 | 67.6
Cc1cn(C2CC2)c2cnn(CC(=O)N[C@@H](C)c3ccc(F)cc3Cl)c(=O)c12 [Example 66, (S)—N-(1-(2-chloro-4-fluorophenyl)ethyl)-2-(1-cyclopropyl-3-methyl-4-oxo-1,4-dihydro-5H-pyrrolo[2,3-d]pyridazin-5-yl)acetamide] | 0.794 | 79.4
Cc1nn(C)c2c(C)nn(CC(=O)N[C@@H](C)c3ccc(OC(F)(F)F)cc3)c(=O)c12 [Example 112, (S)—N-(1-(4-(trifluoromethoxy)phenyl)ethyl)-2-(1,3,7-trimethyl-4-oxo-1,4-dihydro-5H-pyrazolo[3,4-d]pyridazin-5-yl)acetamide] | 263 | 617
Cc1ccc([C@H](C)NC(=O)Cn2ncc3c(c(C)nn3C)c2=O)cc1 [Example 36, (S)-2-(1,3-dimethyl-4-oxo-1,4-dihydro-5H-pyrazolo[3,4-d]pyridazin-5-yl)-N-(1-(p-tolyl)ethyl)acetamide] | 251 | 38.9
Cc1nn(C2CC2)c2cnn(CC(=O)N[C@@H](C)c3ccc(F)cc3F)c(=O)c12 [Example 128, (S)-2-(1-cyclopropyl-3-methyl-4-oxo-1,4-dihydro-5H-pyrazolo[3,4-d]pyridazin-5-yl)-N-(1-(2,4-difluorophenyl)ethyl)acetamide] | 257 | 67.6
Cc1ccc([C@H](C)NC(=O)Cn2nc(C)c3cnn(C(C)(C)C)c3c2=O)c(F)c1 [Example 16, (S)-2-(1-(tert-butyl)-4-methyl-7-oxo-1,7-dihydro-6H-pyrazolo[3,4-d]pyridazin-6-yl)-N-(1-(2-fluoro-4-methylphenyl)ethyl)acetamide] | 11 | 200
CC(C)c1nn(CC(=O)N[C@@H](C)c2ccc(C(F)(F)F)cc2)c(=O)c2c1cnn2C(C)(C)C [Example 12, (S)-2-(1-(tert-butyl)-4-isopropyl-7-oxo-1,7-dihydro-6/1-pyrazolo[3,4-d]pyridazin-6-yl)-N-(1-(4-(trifluoromethyl)phenyl)ethyl)acetamide] | 33.9 | 2140
COc1ccc([C@H](C)NC(=O)Cn2ncc3c(c(C)nn3C3CC3)c2=O)cc1 [Example 110, (S)-2-(1-cyclopropyl-3-methyl-4-oxo-1,4-dihydro-5H-pyrazolo[3,4-d]pyridazin-5-yl)-N-(1-(4-methoxyphenyl)ethyl)acetamide] | 1660 | 69.2
Cc1ccc([C@H](C)NC(=O)Cn2nc(C)c3c(cnn3C3CC3)c2=O)cc1 [Example 80, (S)-2-(1-cyclopropyl-7-methyl-4-oxo-1,4-dihydro-5H-pyrazolo[3,4-d]pyridazin-5-yl)-N-(1-(p-tolyl)ethyl)acetamide] | 1660 | 251
Cc1nn(C2CCC2)c2cnn(CC(=O)N[C@@H](C)c3ccc(C(F)(F)F)cc3)c(=O)c12 [Example 155, (S)-2-(1-cyclobutyl-3-methyl-4-oxo-1,4-dihydro-5H-pyrazolo[3,4-d]pyridazin-5-yl)-N-(1-(4-(trifluoromethyl)phenyl)ethyl)acetamide] | 178 | 87.1
Cc1ccc([C@H](C)NC(=O)Cn2ncc3c(c(C4CC4)nn3C)c2=O)c(F)c1 [Example 124, (S)-2-(3-cyclopropyl-1-methyl-4-oxo-1,4-dihydro-5H-pyrazolo[3,4-d]pyridazin-5-yl)-N-(1-(2-fluoro-4-methylphenyl)ethyl)acetamide] | 7.08 | 60.3
Cc1ccc([C@H](C)NC(=O)Cn2nc(C(C)C)c3cnn(-c4ccccc4)c3c2=O)c(F)c1 [Example 8, (S)—N-(1-(2-fluoro-4-methylphenyl)ethyl)-2-(4-isopropyl-7-oxo-1-phenyl-1,7-dihydro-6H-pyrazolo[3,4-d]pyridazin-6-yl)acetamide] | 27.5 | ≥ 10000
Cc1nn(C23CC(C2)C3)c2cnn(CC(=O)N[C@@H](C)c3ccc(C(F)(F)F)cc3)c(=O)c12 [Example 156, (S)-2-(1-(bicyclo[1.1.1]pentan-1-yl)-3-methyl-4-oxo-1,4-dihydro-5H-pyrazolo[3,4-d]pyridazin-5-yl)-N-(1-(4-(trifluoromethyl)phenyl)ethyl)acetamide] | 331 | 107
C[C@H](NC(=O)Cn1ncc2c(c(C3CC3)nn2C)c1=O)c1ccc(C(F)(F)F)cc1 [Example 115, (S)-2-(3-cyclopropyl-1-methyl-4-oxo-1,4-dihydro-5H-pyrazolo[3,4-d]pyridazin-5-yl)-N-(1-(4-(trifluoromethyl)phenyl)ethyl)acetamide] | 58.9 | 224
